Data on one molecule can be found in US20250186423A1, “METHODS OF TREATING CANCER AND OTHER CONDITIONS WITH A MU OPIOID RECEPTOR ANTAGONIST” (priority 2022, published 2025).

Each structure is given as a SMILES string.

Series [1] relates to blood vessels reaching MDA-MB-231 tumor on the CAM. As to the kind of experiment: Chicken egg chorioallantoic membrane (CAM) tumor angiogenesis, blood vessel count. The format is in vivo. The conditions noted are these: 0.1, 0.5, 1.0 mg/kg; absence of exogenous opioids. Here is the method: Two independent model systems were used to explore the role of MOR and endogenous opioids on angiogenesis. Human umbilical vein endothelial cells (HUVEC) in culture initiate angiogenesis through tube formation when cultured on an appropriate extracellular matrix. In a living system, the chicken egg chorioallantoic membrane assay (CAM) allows direct visualization of new blood vessel formation.
Furthermore, a chicken egg chorioallantoic membrane assay was conducted to determine blood vessel formation in the presence of increasing MOR antagonist (axelopran) concentrations (0, 0.1, 0.5, 1.0 mg/kg). Docetaxel was used as a control. For the testing CAM membranes were incubated in the presence of the MOR antagonist or docetaxel under the following conditions: Fertilized White Leghorn eggs were incubated at 37.5° C. with 50% relative humidity for 9 days. At that moment (E9), the CAM was dropped down by drilling a small hole through the eggshell into the air sac, and a 1 cm window was cut in the eggshell above the CAM. At least 20 eggs (depending on embryo surviving rate after 9 days of development, there could be more than 20 eggs per group) were grafted for each group. […] The number of blood vessels that reach the tumor and feed the tumor proliferation were counted in triplicate to evaluate tumor angiogenesis. […]

Series [2] concerns Zebra fish larvae. As to the kind of experiment: Zebra fish larvae toxicity screen. The format is in vivo, zebrafish. The following applies: doses up to 100 μM in incubation water. As for the experimental part: Transgenic Tg(fli1: EGFP)y1 zebrafish embryos were used for these studies. The results of this testing are shown in FIG. 4A and FIG. 4B, which show Zebra fish larvae survival up to 72 hours in the presence of increasing axelopran concentration in the incubation water.
Based on the toxicity screening, for tumor progression analysis, doses up to 10 μM were utilized.
(§1) The toxicity screening period covered the first 72 hours of development. The efficacy evaluation of Axelopran was made using M-001 melanoma cells and matching TILs. Two-day old zebrafish embryos were subcutaneously injected into the perivitelline space with approximately 700 M-001 cells labelled with Dil red fluorescent dye and intravenously injected with TILs with or without pembrolizumab antibody. At the same time, MOR-antagonist test doses were added to the water. Following an additional 72 hours of further development, the fish were assayed for tumor growth (size of original tumor implant) and metastasis disseminated to the distal caudal venous plexus (CVP) three days after implantation.

Series [3] has as its system M-001 melanoma cells. The series is described as follows: Melanoma tumor progression in Zebra fish larvae. The following applies: for Melanoma tumor progression index (tumor size × metastasis), Mean: 72 hours of growth. The series is classed as in vivo, zebrafish. Here is the method: Zebra fish larvae (FIG. 3A) allow direct visualization of injected tumor cell growth and metastasis (collectively tumor progression) using fluorescently label tumor cells. At this developmental stage both the zebra fish immune system and gut microbiome are immature or lacking. Co-injection of exogenous tumor infiltrating lymphocytes (ex-TILS) allows the separate study of immune surveillance in the absence of a microbiome.
as §1
The testing described above was repeated studying the effects of various doses of axelopran (0, 50 nM, 100 nM, 500 nM, and 1000 nM) alone, pembrolizumab alone, or pembrolizumab in combination with axelopran. The results of this testing are shown in FIG. 7, which depicts a summary of melanoma tumor progression (tumor size×#metastasis) in the presence of increasing axelopran concentrations or the checkpoint inhibitor pembrolizumab. For experiments using pembrolizumab, exogenous tumor-infiltrating lymphocytes (TILs) were also injected. The additional controls included the effect of TILs alone and with axelopran (500 nM) and pembrolizumab and TILs alone and with axelopran (500 nM). *=<0.05, **=<0.005, ***=<0.0005.

Series [4] relates to Zebra fish larvae. The series is described as follows: Zebra fish larvae mortality in combination therapy study. The series is classed as in vivo, zebrafish. Here is the method: as §1
For study investigating combination therapy, the Zebra fish larvae mortality was also investigated.

In series [5] the test system is Mouse pancreatic tumor cells (PAN02 cells). As to the kind of experiment: Syngeneic mouse pancreatic cancer model. The format is in vivo, mice (C57BL6). As for the experimental part: Mouse pancreatic tumor cells (PAN02 cells), maintained in RPMI 1640 media supplemented with 10% FBS and 2 mmol/L L-glutamine, were amplified in vitro prior to implantation. On the day of injection, cells were harvested, counted including a trypan blue viability dye (cut-off 80%), and resuspended in PBS at the appropriate concentration. The cells (5×10^6 in 200 μL PBS) were injected subcutaneously in the right flank of Female mice (C57BL6), 5 weeks of age (18-22 gm body weight) within 30 minutes after harvesting. After 9 days of tumor growth, mice were randomized into treatment groups at 10 animals/group. Treatments included vehicle (PBS), axelopran given as 1 mg/kg, p.o. daily, mouse anti-PD-1 given as 12.5 mg/kg i.p., 3x/week and axelopran plus mouse anti-PD-1. Animals were weighed thrice weekly and tumor growth measured using callipers as described previously for the colon cancer experiments.

Where [6] appears, read: absence of exogenous opioids, melanoma.

As for `NC(=O)c1cccc(C2CC3CCC(C2)N3CCN(CC2CCCCC2)C(=O)[C@@H](O)CO)c1` (stereo partly drawn) [axelopran, 3-[(1R,3r,5S)-8-(2-{(cyclohexylmethyl)[(2S)-2,3-dihydroxypropanoyl]amino}ethyl)-8-azabicyclo[3.2.1]octan-3-yl]benzamide], the “angiogenesis (blood vessel formation, CAM)” value in series [1] was “inhibit angiogenesis”. In addition, in series [2], the abnormal pathology entry is reported as “limited abnormal pathology”. Moreover, the larvae death result in series [2] is on record as “did not result in larvae death”. Further, the “survival and development of pathological lesions” value in series [2] (up to 72 hours) is listed as “no different that the vehicle control”. Further, the metastasis entry is on record as “significantly reduced metastasis” in series [3] (10 μM axelopran vs vehicle control) and “inhibits metastasis” in series [3] (setting [6]). In addition, the “Melanoma tumor progression index (tumor size × metastasis), Mean” value is given as 5.71 in series [3] (Axelopran 100 nM), 2.73 in series [3] (Axelopran 500 nM +TILS), 3.62 in series [3] (Axelopran 500 nM) and 1.85 in series [3] (Axelopran 1000 nM). In series [3] (absence of a microbiome, melanoma), the “interaction of axelopran activity with anti-PD-1 treatment” value is given as “additive”. In series [3] (setting [6]), the tumor growth entry is “inhibits tumor growth”. For the same molecule, the “Zebra fish larvae mortality” value in series [4] (axelopran added with TILS and TILS plus pembrolizumab) is reported as “significantly reduced this mortality”; in series [4] (axelopran alone, 72-hour period after exposure at 48 hours post-fertilization), “no significant mortality”. For the same molecule, the “distribution of tumor volumes” value in series [5] (compared to animals not treated with axelopran) was “lower and more uniform”. In addition, in series [5] (day 23, axelopran 1 mg/kg p.o. daily, mouse anti-PD-1 12.5 mg/kg i.p. 3x/week), the “inhibition of tumor progression” value is reported as “most prominent”.
